Source: patent US7932387B2, “Crystalline forms of rosuvastatin calcium salt” (BASF SE, priority 2005, dated 2011)
Counter-ions that a name gives are not always drawn.

Experiments:
[1] = Solubility in water and in physiological liquids (comparison of solid forms); format: physicochemical; conditions: compared with form A; qualitative statement
[2] = Chemical and physical stability (comparison of solid forms); format: physicochemical; conditions: compared with the amorphous form; qualitative statement

SMILES: CC(C)c1nc(N(C)S(C)(=O)=O)nc(-c2ccc(F)cc2)c1/C=C/[C@@H](O)C[C@@H](O)CC(=O)O [Form B, bis[(E)-7-[4-(4-fluorophenyl)-6-isopropyl-2-[methyl(methylsulfonyl)amino]pyrimidin-5-yl](3R,5S)-3,5-dihydroxyhept-6-enoic acid] calcium salt]
- solubility in water and in physiological liquids [1]: better soluble in water and in physiological liquids than form A
- chemical and physical stability [2]: chemically and physically more stable than the amorphous form
